What follows are targets tested with Nc1nc2c(ncn2[C@@H]2O[C@H](COP(=O)(O)OP(=O)(O)OP(=O)(O)O)[C@@H](O)[C@H]2O)c(=O)[nH]1 [guanosine triphosphate] (assay: pEC50 of GTP-induced change in protein thermal stability (2D-TPP)).
Experimental: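 2D thermal proteome profiling in Jurkat crude lysate. Lysate was treated 10 min at room temperature with Na-GTP (0, 0.001, 0.01, 0.1, 0.5 mM), heated to 12 temperatures (42-63.9 °C) for 3 min, and soluble protein was quantified by TMT10 LC-MS/MS. pEC50 is the median over replicates of dose-response fits (FDR-controlled hits).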

UniProt Q9HCN4, sequence (Q9HCN4 whole entry): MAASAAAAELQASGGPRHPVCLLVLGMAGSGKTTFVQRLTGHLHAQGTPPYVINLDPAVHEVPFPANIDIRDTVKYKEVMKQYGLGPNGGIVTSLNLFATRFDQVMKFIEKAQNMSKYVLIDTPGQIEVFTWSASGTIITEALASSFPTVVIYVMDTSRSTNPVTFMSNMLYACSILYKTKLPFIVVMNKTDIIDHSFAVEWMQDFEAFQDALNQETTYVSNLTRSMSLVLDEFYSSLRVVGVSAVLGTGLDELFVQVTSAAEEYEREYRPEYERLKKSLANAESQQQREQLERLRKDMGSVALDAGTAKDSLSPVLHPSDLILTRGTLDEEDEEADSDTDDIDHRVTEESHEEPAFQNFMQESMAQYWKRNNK
UniProt P57772, sequence (P57772 whole entry): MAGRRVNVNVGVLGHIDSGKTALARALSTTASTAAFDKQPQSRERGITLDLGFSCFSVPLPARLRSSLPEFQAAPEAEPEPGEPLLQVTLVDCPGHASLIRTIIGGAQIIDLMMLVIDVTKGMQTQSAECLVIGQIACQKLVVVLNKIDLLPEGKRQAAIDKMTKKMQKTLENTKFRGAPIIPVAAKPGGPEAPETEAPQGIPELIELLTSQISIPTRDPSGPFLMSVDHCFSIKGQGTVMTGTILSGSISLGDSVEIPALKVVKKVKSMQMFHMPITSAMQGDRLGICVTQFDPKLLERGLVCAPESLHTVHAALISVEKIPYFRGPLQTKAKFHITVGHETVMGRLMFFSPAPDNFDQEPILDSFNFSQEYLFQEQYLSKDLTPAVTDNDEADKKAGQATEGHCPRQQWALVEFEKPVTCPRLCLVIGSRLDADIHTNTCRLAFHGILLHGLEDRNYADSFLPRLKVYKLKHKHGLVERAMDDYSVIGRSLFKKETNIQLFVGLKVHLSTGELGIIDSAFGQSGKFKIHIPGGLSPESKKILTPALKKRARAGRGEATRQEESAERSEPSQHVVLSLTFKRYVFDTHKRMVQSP
UniProt Q9Y673, sequence (Q9Y673 whole entry): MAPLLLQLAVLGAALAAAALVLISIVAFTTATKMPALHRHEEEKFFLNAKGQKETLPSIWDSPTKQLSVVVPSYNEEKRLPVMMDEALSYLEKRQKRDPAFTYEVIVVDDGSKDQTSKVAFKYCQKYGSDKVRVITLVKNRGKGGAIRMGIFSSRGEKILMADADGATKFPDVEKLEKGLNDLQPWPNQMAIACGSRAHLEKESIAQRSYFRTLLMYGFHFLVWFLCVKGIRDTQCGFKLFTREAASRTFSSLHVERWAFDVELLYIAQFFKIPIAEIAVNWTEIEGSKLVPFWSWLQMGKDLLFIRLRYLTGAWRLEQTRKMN
UniProt P11234, sequence (P11234 whole entry): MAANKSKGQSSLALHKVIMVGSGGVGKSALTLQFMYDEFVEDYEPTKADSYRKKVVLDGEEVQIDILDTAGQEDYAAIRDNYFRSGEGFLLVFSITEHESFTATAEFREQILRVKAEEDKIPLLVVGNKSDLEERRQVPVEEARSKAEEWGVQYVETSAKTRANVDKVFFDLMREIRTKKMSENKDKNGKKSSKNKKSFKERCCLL
UniProt A3KMH1, sequence (A3KMH1 whole entry): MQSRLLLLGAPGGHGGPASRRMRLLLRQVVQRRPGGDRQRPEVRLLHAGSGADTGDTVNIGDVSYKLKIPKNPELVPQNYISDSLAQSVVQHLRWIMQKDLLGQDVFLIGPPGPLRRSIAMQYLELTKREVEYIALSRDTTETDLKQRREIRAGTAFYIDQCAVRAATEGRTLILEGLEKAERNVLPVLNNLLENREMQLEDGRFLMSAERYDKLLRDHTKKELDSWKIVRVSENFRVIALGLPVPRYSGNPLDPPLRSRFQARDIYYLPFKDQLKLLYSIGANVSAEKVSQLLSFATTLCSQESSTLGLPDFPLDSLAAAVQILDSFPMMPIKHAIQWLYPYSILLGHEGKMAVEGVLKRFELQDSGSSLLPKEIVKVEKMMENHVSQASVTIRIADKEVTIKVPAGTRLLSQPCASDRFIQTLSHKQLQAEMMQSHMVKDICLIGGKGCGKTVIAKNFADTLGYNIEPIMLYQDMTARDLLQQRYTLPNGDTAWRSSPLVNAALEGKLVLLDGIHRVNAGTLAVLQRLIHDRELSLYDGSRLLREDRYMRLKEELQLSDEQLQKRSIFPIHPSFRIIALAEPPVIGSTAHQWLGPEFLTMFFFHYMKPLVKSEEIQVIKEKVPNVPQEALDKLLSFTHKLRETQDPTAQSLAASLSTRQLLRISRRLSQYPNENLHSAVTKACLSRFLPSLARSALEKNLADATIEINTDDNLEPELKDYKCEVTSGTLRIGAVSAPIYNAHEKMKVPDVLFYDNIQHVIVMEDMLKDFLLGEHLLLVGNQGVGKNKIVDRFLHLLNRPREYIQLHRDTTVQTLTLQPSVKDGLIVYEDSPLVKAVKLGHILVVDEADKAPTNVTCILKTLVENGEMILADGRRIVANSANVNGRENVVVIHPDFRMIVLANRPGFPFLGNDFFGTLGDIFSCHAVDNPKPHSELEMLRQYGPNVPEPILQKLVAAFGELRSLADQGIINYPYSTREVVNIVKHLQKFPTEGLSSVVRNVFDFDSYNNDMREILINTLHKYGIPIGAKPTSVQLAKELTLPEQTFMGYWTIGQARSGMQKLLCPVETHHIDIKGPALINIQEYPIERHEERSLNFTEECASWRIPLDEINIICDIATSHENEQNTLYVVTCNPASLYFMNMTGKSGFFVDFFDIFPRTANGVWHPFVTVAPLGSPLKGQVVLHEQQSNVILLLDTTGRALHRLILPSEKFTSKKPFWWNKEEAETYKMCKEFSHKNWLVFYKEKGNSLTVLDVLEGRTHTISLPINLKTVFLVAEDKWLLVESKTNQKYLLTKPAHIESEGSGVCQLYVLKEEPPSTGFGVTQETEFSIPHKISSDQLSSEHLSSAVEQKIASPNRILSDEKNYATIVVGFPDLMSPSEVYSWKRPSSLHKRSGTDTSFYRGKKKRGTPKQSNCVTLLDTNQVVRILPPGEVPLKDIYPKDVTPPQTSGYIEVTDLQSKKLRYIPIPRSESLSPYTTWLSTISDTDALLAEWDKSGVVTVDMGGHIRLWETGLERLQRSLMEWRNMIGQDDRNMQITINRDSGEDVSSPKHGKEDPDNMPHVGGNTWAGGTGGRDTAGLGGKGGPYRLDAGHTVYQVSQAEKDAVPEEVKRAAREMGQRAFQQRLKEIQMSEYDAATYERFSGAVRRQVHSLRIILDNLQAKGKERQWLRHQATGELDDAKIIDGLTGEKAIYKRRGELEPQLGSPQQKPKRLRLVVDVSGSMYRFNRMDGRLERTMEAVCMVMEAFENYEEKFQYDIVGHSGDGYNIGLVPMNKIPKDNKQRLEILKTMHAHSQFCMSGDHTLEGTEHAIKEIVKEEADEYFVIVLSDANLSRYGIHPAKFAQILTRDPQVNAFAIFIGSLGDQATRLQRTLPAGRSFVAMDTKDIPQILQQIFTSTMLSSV
UniProt Q13243, sequence (Q13243 whole entry): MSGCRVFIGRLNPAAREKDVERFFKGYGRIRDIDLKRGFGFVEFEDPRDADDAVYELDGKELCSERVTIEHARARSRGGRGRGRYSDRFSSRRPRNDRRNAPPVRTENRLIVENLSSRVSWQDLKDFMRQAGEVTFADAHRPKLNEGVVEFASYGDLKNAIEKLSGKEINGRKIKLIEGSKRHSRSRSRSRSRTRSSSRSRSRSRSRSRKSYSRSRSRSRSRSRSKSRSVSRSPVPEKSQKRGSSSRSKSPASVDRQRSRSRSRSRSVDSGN
UniProt Q15424, sequence (Q15424 whole entry): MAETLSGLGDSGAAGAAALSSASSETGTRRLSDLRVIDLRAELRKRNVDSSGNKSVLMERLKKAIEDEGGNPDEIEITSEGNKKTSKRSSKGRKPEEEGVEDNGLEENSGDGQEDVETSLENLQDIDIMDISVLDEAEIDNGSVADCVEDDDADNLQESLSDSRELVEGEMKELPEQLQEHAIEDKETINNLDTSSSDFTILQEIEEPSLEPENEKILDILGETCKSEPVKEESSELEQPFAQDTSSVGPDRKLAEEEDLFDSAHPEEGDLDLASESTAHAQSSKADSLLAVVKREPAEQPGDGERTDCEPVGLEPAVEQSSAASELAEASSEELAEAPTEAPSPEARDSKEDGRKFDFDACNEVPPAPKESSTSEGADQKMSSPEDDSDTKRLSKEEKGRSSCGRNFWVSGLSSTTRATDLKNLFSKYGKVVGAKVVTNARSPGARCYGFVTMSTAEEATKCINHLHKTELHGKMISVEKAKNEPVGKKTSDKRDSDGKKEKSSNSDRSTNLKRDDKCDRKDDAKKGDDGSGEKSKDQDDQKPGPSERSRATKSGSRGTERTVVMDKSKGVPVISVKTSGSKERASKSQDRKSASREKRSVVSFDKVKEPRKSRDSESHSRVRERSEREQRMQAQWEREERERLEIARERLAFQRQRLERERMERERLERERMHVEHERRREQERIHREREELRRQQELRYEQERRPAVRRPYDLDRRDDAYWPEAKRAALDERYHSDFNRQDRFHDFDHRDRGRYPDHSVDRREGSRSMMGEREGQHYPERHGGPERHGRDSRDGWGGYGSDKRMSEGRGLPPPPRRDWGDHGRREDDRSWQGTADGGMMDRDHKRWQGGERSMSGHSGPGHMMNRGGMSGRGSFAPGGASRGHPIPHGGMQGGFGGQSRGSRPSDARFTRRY
UniProt P09471, sequence (P09471 whole entry, looked up): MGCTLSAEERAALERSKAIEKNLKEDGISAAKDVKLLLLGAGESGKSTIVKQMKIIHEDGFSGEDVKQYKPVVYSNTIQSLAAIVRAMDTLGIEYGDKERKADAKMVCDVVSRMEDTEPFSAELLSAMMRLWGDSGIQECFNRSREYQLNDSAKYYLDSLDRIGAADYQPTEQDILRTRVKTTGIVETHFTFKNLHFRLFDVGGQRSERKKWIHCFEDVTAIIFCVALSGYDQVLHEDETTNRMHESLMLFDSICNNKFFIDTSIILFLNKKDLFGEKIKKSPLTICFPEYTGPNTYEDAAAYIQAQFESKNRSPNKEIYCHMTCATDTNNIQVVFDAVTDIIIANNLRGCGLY

| pEC50 | Target |
| --- | --- |
| 3.84 | RECQL (effect direction: destabilized) (UniProt P46063) |
| 3.92 | ARL1 (effect direction: stabilized) (UniProt P40616) |
| 4.16 | SAR1B (effect direction: stabilized) (UniProt Q9Y6B6) |
| 3.69 | UniProt P62805 (effect direction: stabilized) |
| 3.88 | LSG1 (effect direction: stabilized) (UniProt Q9H089) |
| 3.88 | ATL2 (effect direction: stabilized) (UniProt Q8NHH9) |
| 4.02 | RAB23 (effect direction: stabilized) (UniProt Q9ULC3) |
| 3.59 | UniProt P60953 (effect direction: stabilized) |
| 4.57 | DDX1 (effect direction: stabilized) (UniProt Q92499) |
| 4.04 | GFM1 (effect direction: stabilized) (UniProt Q96RP9) |
| 4.39 | RNGTT (effect direction: stabilized) (UniProt O60942) |
| 4.57 | ARF4 (effect direction: stabilized) (UniProt P18085) |
| 3.79 | UniProt Q08170 (effect direction: stabilized) |
| 3.49 | H2AFX (effect direction: stabilized) (UniProt P16104) |
| 3.78 | DNM2 (effect direction: stabilized) (UniProt P50570) |
| 4.13 | UniProt P84085 (effect direction: stabilized) |
| 3.6 | GNAQ (effect direction: stabilized) (UniProt P50148) |
| 3.92 | EEFSEC (effect direction: stabilized) (UniProt P57772) |
| 4.36 | ARL3 (effect direction: stabilized) (UniProt P36405) |
| 4.03 | COASY (effect direction: stabilized) (UniProt Q13057) |
| 4.16 | UniProt O75582 (effect direction: stabilized) |
| 3.6 | UniProt Q13243 (effect direction: stabilized) |
| < 3.3 | CPSF6 (effect direction: stabilized) (UniProt Q16630) |
| 4.31 | TUBE1 (effect direction: stabilized) (UniProt Q9UJT0) |

| pEC50 | Target |
| --- | --- |
| 4.08 | MMAA (effect direction: stabilized) (UniProt Q8IVH4) |
| 4.21 | HBS1L (effect direction: stabilized) (UniProt Q9Y450) |
| 3.34 | SAFB2 (effect direction: destabilized) (UniProt Q14151) |
| 4.22 | UniProt Q5JTY5 (effect direction: stabilized) |
| 3.79 | UniProt O95747 (effect direction: stabilized) |
| 3.98 | UniProt A3KMH1 (effect direction: stabilized) |
| 3.79 | PCK2 (effect direction: stabilized) (UniProt Q16822) |
| 3.62 | DNM1 (effect direction: stabilized) (UniProt Q05193) |
| 4.22 | ATAD3A (effect direction: stabilized) (UniProt Q9NVI7) |
| 3.96 | MFN1 (effect direction: stabilized) (UniProt Q8IWA4) |
| 3.67 | H2AFY (effect direction: stabilized) (UniProt O75367) |
| 4.95 | GPN1 (effect direction: stabilized) (UniProt Q9HCN4) |
| 4.09 | UniProt Q86Y56 (effect direction: stabilized) |
| 4.41 | TUFM (effect direction: stabilized) (UniProt P49411) |
| 3.74 | GDI2 (effect direction: stabilized) (UniProt P50395) |
| 3.97 | RAB5A (effect direction: stabilized) (UniProt P20339) |
| 4.01 | NRAS (effect direction: stabilized) (UniProt P01111) |
| 3.8 | RAB37 (effect direction: stabilized) (UniProt Q96AX2) |
| 3.96 | UniProt Q9BSD7 (effect direction: stabilized) |
| 4.24 | GNAO1 (effect direction: stabilized) (UniProt P09471) |
| 4.32 | KRAS (effect direction: stabilized) (UniProt P01116) |
| 4.67 | UniProt P61020 (effect direction: stabilized) |
| 4.18 | UniProt P61221 (effect direction: stabilized) |
| 3.83 | UniProt Q9Y3L5 (effect direction: stabilized) |

| pEC50 | Target |
| --- | --- |
| 3.71 | OPA1 (effect direction: stabilized) (UniProt O60313) |
| < 3.3 | CDC123 (effect direction: stabilized) (UniProt O75794) |
| 3.41 | PANK3 (effect direction: stabilized) (UniProt Q9H999) |
| 3.84 | UniProt P63000 (effect direction: stabilized) |
| 4.14 | RALB (effect direction: stabilized) (UniProt P11234) |
| 3.81 | EIF5B (effect direction: stabilized) (UniProt O60841) |
| 3.92 | RAB27A (effect direction: stabilized) (UniProt P51159) |
| 3.82 | SACS (effect direction: stabilized) (UniProt Q9NZJ4) |
| 4.62 | CPT1A (effect direction: stabilized) (UniProt P50416) |
| 3.56 | ACSF3 (effect direction: destabilized) (UniProt Q4G176) |
| 4.2 | GNL2 (effect direction: stabilized) (UniProt Q13823) |
| 3.4 | TUBA1A (effect direction: stabilized) (UniProt Q71U36) |
| 4.43 | UniProt P08134 (effect direction: stabilized) |
| 4.01 | SRP72 (effect direction: stabilized) (UniProt O76094) |
| 3.78 | POFUT1 (effect direction: stabilized) (UniProt Q9H488) |
| 3.56 | ALG1 (effect direction: stabilized) (UniProt Q9BT22) |
| 4.12 | RAB33B (effect direction: stabilized) (UniProt Q9H082) |
| 3.9 | UniProt P51149 (effect direction: stabilized) |
| 4.38 | UniProt P62834 (effect direction: stabilized) |
| 3.81 | DOCK2 (effect direction: stabilized) (UniProt Q92608) |
| 4.3 | UQCRC2 (effect direction: stabilized) (UniProt P22695) |
| 4.1 | ARL6 (effect direction: stabilized) (UniProt Q9H0F7) |
| 4.12 | ARF3 (effect direction: stabilized) (UniProt P61204) |
| 4.68 | ALG5 (effect direction: stabilized) (UniProt Q9Y673) |

| pEC50 | Target |
| --- | --- |
| 3.93 | UniProt P78527 (effect direction: stabilized) |
| 3.85 | RAB3D (effect direction: stabilized) (UniProt O95716) |
| 3.83 | UniProt P84095 (effect direction: stabilized) |
| 3.84 | RRAS (effect direction: stabilized) (UniProt P10301) |
| 3.91 | RFC4 (effect direction: stabilized) (UniProt P35249) |
| 3.98 | SRP54 (effect direction: stabilized) (UniProt P61011) |
| 4.7 | DRG1 (effect direction: stabilized) (UniProt Q9Y295) |
| 3.72 | GIMAP4 (effect direction: stabilized) (UniProt Q9NUV9) |
| 3.65 | RAB18 (effect direction: stabilized) (UniProt Q9NP72) |
| 4.81 | SAFB (effect direction: destabilized) (UniProt Q15424) |
| 3.79 | RSRC2 (effect direction: stabilized) (UniProt Q7L4I2) |
| 3.85 | RFC3 (effect direction: stabilized) (UniProt P40938) |
| 4 | RAB3A (effect direction: stabilized) (UniProt P20336) |
| < 3.3 | UCK1 (effect direction: stabilized) (UniProt Q9HA47) |
| 4.27 | UniProt O14966 (effect direction: stabilized) |
| 3.66 | UniProt Q9NZ01 (effect direction: stabilized) |
| 3.98 | RAC2 (effect direction: stabilized) (UniProt P15153) |
| 3.92 | DHX30 (effect direction: destabilized) (UniProt Q7L2E3) |
| 3.86 | UniProt O00506 (effect direction: stabilized) |
| 4.47 | RAP2A (effect direction: stabilized) (UniProt P10114) |
| 4.23 | RAB11B (effect direction: stabilized) (UniProt Q15907) |
| 4.12 | SRP68 (effect direction: stabilized) (UniProt Q9UHB9) |
